# Experimental data taken from patent US20230157952A1, “METHOD FOR IMPROVING THE STABILITY OF A PHARMACEUTICAL COMPOSITION COMPRISING A HIGH PENETRATION DRUG, AND THE PHARMACEUTICAL COMPOSITION OBTAINED THEREFROM” (Techfields Inc., priority 2020, published 2023).
# Assays:
# [1] = Effect of temperature (and pH) on the stability of the solution (purity); type: physicochemical
# [2] = Effect of concentration on the stability of the solution (purity over time); conditions: in water at 25° C.
smiles,measurement,setting,value
CCN(CC)CCOC(=O)C(C)c1ccc(CC(C)C)cc1.Cl (racemic),Purity (%) at day 21 (60° C.),"[1]; pH 1.02, 7% solution in water",0%
same,Purity(%) at day 21 (5° C.),"[1]; pH 1.02, 7% solution in water",93.7 ± 0.3%
same,Purity(%) at day 21 (25° C.),"[1]; pH 1.02, 7% solution in water",73.0 ± 0.4%
same,Purity(%) at day 21 (40° C.),"[1]; pH 1.02, 7% solution in water",18.6 ± 0.4%
same,Purity (%) at day 21 (60° C.),"[1]; pH 2.09, 7% solution in water",0%
same,Purity(%) at day 21 (5° C.),"[1]; pH 2.09, 7% solution in water",97.6 ± 0.4%
same,Purity(%) at day 21 (25° C.),"[1]; pH 2.09, 7% solution in water",86.1 ± 0.3%
same,Purity(%) at day 21 (40° C.),"[1]; pH 2.09, 7% solution in water",30.4 ± 0.3%
same,Purity (%) at day 21 (60° C.),"[1]; pH 3.00, 7% solution in water",8.8 ± 0.3%
same,Purity(%) at day 21 (25° C.),"[1]; pH 3.00, 7% solution in water",96.5 ± 0.4%
same,Purity(%) at day 21 (40° C.),"[1]; pH 3.00, 7% solution in water",56.3 ± 0.4%
same,Purity (%) at day 21 (60° C.),"[1]; pH 3.68, 7% solution in water",16.4 ± 0.4%
same,Purity(%) at day 21 (40° C.),"[1]; pH 3.68, 7% solution in water",64.3 ± 0.4%
same,Purity (%) at day 21 (60° C.),"[1]; pH 4.07, 7% solution in water",22.6 ± 0.4%
same,Purity(%) at day 21 (40° C.),"[1]; pH 4.07, 7% solution in water",72.7 ± 0.3%
same,Purity (%) at day 21 (60° C.),"[1]; pH 4.35, 7% solution in water",18.8 ± 0.2%
same,Purity(%) at day 21 (40° C.),"[1]; pH 4.35, 7% solution in water",72.6 ± 0.3%
same,Purity (%) at day 21 (60° C.),"[1]; pH 4.67, 7% solution in water",10.3 ± 0.3%
same,Purity(%) at day 21 (40° C.),"[1]; pH 4.67, 7% solution in water",58.2 ± 0.4%
same,Purity (%) at day 21 (60° C.),"[1]; pH 4.95, 7% solution in water",3.9 ± 0.3%
same,Purity(%) at day 21 (5° C.),"[1]; pH 4.95, 7% solution in water",97.5 ± 0.4%
same,Purity(%) at day 21 (25° C.),"[1]; pH 4.95, 7% solution in water",95.4 ± 0.4%
same,Purity(%) at day 21 (40° C.),"[1]; pH 4.95, 7% solution in water",50.2 ± 0.4%
same,Purity (%) at day 21 (60° C.),"[1]; pH 5.98, 7% solution in water",0%
same,Purity(%) at day 21 (5° C.),"[1]; pH 5.98, 7% solution in water",96.1 ± 0.3%
same,Purity(%) at day 21 (25° C.),"[1]; pH 5.98, 7% solution in water",90.7 ± 0.3%
same,Purity(%) at day 21 (40° C.),"[1]; pH 5.98, 7% solution in water",29.9 ± 0.2%
same,Purity (%) at day 21 (60° C.),"[1]; pH 6.98, 7% solution in water",0%
same,Purity(%) at day 21 (5° C.),"[1]; pH 6.98, 7% solution in water",90.7 ± 0.4%
same,Purity(%) at day 21 (25° C.),"[1]; pH 6.98, 7% solution in water",78.6 ± 0.4%
same,Purity(%) at day 21 (40° C.),"[1]; pH 6.98, 7% solution in water",19.7 ± 0.4%
same,Purity (%) at day 21 (60° C.),"[1]; pH 8.01, 7% solution in water",0%
same,Purity(%) at day 21 (5° C.),"[1]; pH 8.01, 7% solution in water",81.6 ± 0.5%
same,Purity(%) at day 21 (25° C.),"[1]; pH 8.01, 7% solution in water",52.5 ± 0.5%
same,Purity(%) at day 21 (40° C.),"[1]; pH 8.01, 7% solution in water",0%
CCN(CC)CCOC(=O)[C@H](C)c1ccc2cc(OC)ccc2c1.Cl (racemic),Purity (%) at day 21 (60° C.),"[1]; pH 1.02, 7% solution in water",0%
same,Purity(%) at day 21 (5° C.),"[1]; pH 1.02, 7% solution in water",93.8 ± 0.2%
same,Purity(%) at day 21 (25° C.),"[1]; pH 1.02, 7% solution in water",72.2 ± 0.2%
same,Purity(%) at day 21 (40° C.),"[1]; pH 1.02, 7% solution in water",18.1 ± 0.3%
same,Purity (%) at day 21 (60° C.),"[1]; pH 2.09, 7% solution in water",0%
same,Purity(%) at day 21 (25° C.),"[1]; pH 2.09, 7% solution in water",86.3 ± 0.2%
same,Purity(%) at day 21 (40° C.),"[1]; pH 2.09, 7% solution in water",30.2 ± 0.4%
same,Purity (%) at day 21 (60° C.),"[1]; pH 3.00, 7% solution in water",7.9 ± 0.2%
same,Purity(%) at day 21 (25° C.),"[1]; pH 3.00, 7% solution in water",96.3 ± 0.2%
same,Purity(%) at day 21 (40° C.),"[1]; pH 3.00, 7% solution in water",56.7 ± 0.2%
same,Purity (%) at day 21 (60° C.),"[1]; pH 3.68, 7% solution in water",15.3 ± 0.4%
same,Purity(%) at day 21 (40° C.),"[1]; pH 3.68, 7% solution in water",63.7 ± 0.2%
same,Purity (%) at day 21 (60° C.),"[1]; pH 4.07, 7% solution in water",21.5 ± 0.3%
same,Purity(%) at day 21 (40° C.),"[1]; pH 4.07, 7% solution in water",72.5 ± 0.3%
same,Purity (%) at day 21 (60° C.),"[1]; pH 4.35, 7% solution in water",18.7 ± 0.2%
same,Purity(%) at day 21 (40° C.),"[1]; pH 4.35, 7% solution in water",72.3 ± 0.2%
same,Purity (%) at day 21 (60° C.),"[1]; pH 4.67, 7% solution in water",10.6 ± 0.2%
same,Purity(%) at day 21 (40° C.),"[1]; pH 4.67, 7% solution in water",58.5 ± 0.2%
same,Purity (%) at day 21 (60° C.),"[1]; pH 4.95, 7% solution in water",3.1 ± 0.3%
same,Purity(%) at day 21 (25° C.),"[1]; pH 4.95, 7% solution in water",95.5 ± 0.3%
same,Purity(%) at day 21 (40° C.),"[1]; pH 4.95, 7% solution in water",50.6 ± 0.2%
same,Purity (%) at day 21 (60° C.),"[1]; pH 5.98, 7% solution in water",0%
same,Purity(%) at day 21 (5° C.),"[1]; pH 5.98, 7% solution in water",96.1 ± 0.2%
same,Purity(%) at day 21 (25° C.),"[1]; pH 5.98, 7% solution in water",90.7 ± 0.3%
same,Purity(%) at day 21 (40° C.),"[1]; pH 5.98, 7% solution in water",30.3 ± 0.3%
same,Purity (%) at day 21 (60° C.),"[1]; pH 6.98, 7% solution in water",0%
same,Purity(%) at day 21 (5° C.),"[1]; pH 6.98, 7% solution in water",90.9 ± 0.2%
same,Purity(%) at day 21 (25° C.),"[1]; pH 6.98, 7% solution in water",70.8 ± 0.2%
same,Purity(%) at day 21 (40° C.),"[1]; pH 6.98, 7% solution in water",19.9 ± 0.3%
same,Purity (%) at day 21 (60° C.),"[1]; pH 8.01, 7% solution in water",0%
same,Purity(%) at day 21 (5° C.),"[1]; pH 8.01, 7% solution in water",81.9 ± 0.2%
same,Purity(%) at day 21 (25° C.),"[1]; pH 8.01, 7% solution in water",58.8 ± 0.2%
same,Purity(%) at day 21 (40° C.),"[1]; pH 8.01, 7% solution in water",0%
CCN(CC)CCOC(=O)Cc1c(C)n(C(=O)c2ccc(Cl)cc2)c2ccc(OC)cc12.Cl [2-(diethylamino)ethyl 1-(4-chlorobenzoyl)-5-methoxy-2-methyl-1H-indole-3-acetate•HCl],Stability of the solution at a temperature higher than 40° C. and a pH lower than 3 or greater than 6,[1]; 7% solution in water,not stable
same,Purity at Day 3,[2]; 0.01 wt %,84.2%
same,Purity at Day 7,[2]; 0.01 wt %,72.9%
same,Purity at Day 14,[2]; 0.01 wt %,61.3%
same,Purity at Day 21,[2]; 0.01 wt %,53.4%
same,Purity at Day 28,[2]; 0.01 wt %,45.5%
same,Purity at hr 0,[2]; 0.01 wt %,98.0%
same,Purity at Day 3,[2]; 0.1 wt %,96.3%
same,Purity at Day 7,[2]; 0.1 wt %,93.6%
same,Purity at Day 14,[2]; 0.1 wt %,88.9%
same,Purity at Day 21,[2]; 0.1 wt %,84.7%
same,Purity at Day 28,[2]; 0.1 wt %,78.7%
same,Purity at hr 0,[2]; 0.1 wt %,98.2%
same,Purity at Day 3,[2]; 1 wt %,97.2%
same,Purity at Day 7,[2]; 1 wt %,96.1%
same,Purity at Day 14,[2]; 1 wt %,94.0%
same,Purity at Day 21,[2]; 1 wt %,92.4%
same,Purity at Day 28,[2]; 1 wt %,91.2%
same,Purity at hr 0,[2]; 1 wt %,98.3%
same,Purity at Day 3,[2]; 3 wt %,97.8%
same,Purity at Day 7,[2]; 3 wt %,97.2%
same,Purity at Day 14,[2]; 3 wt %,96.0%
same,Purity at Day 21,[2]; 3 wt %,95.0%
same,Purity at Day 28,[2]; 3 wt %,94.1%
same,Purity at hr 0,[2]; 3 wt %,98.4%
same,Purity at Day 3,[2]; 5 wt %,98.3%
same,Purity at Day 7,[2]; 5 wt %,98.0%
same,Purity at Day 14,[2]; 5 wt %,97.7%
same,Purity at Day 21,[2]; 5 wt %,97.1%
same,Purity at Day 28,[2]; 5 wt %,96.5%
same,Purity at hr 0,[2]; 5 wt %,98.5%
same,Purity at Day 3,[2]; 7 wt %,98.4%
same,Purity at Day 7,[2]; 7 wt %,98.2%
same,Purity at Day 14,[2]; 7 wt %,98.0%
same,Purity at Day 21,[2]; 7 wt %,97.7%
same,Purity at Day 28,[2]; 7 wt %,97.4%
same,Purity at hr 0,[2]; 7 wt %,98.5%
same,Purity at Day 3,[2]; 8 wt %,98.4%
same,Purity at Day 7,[2]; 8 wt %,98.3%
same,Purity at Day 14,[2]; 8 wt %,98.0%
same,Purity at Day 21,[2]; 8 wt %,97.8%
same,Purity at Day 28,[2]; 8 wt %,97.4%
same,Purity at hr 0,[2]; 8 wt %,98.6%
same,Purity at Day 3,[2]; 10 wt %,98.4%
same,Purity at Day 7,[2]; 10 wt %,98.3%
same,Purity at Day 14,[2]; 10 wt %,98.2%
same,Purity at Day 21,[2]; 10 wt %,98.0%
same,Purity at Day 28,[2]; 10 wt %,97.6%
same,Purity at hr 0,[2]; 10 wt %,98.5%
same,Purity at Day 3,[2]; 15 wt %,98.4%
same,Purity at Day 7,[2]; 15 wt %,98.2%
same,Purity at Day 14,[2]; 15 wt %,98.1%
same,Purity at Day 21,[2]; 15 wt %,98.0%
same,Purity at Day 28,[2]; 15 wt %,97.5%
same,Purity at hr 0,[2]; 15 wt %,98.5%
same,Purity at Day 3,[2]; 20 wt %,98.4%
same,Purity at Day 7,[2]; 20 wt %,98.5%
same,Purity at Day 14,[2]; 20 wt %,98.2%
same,Purity at Day 21,[2]; 20 wt %,98.1%
same,Purity at Day 28,[2]; 20 wt %,97.7%
same,Purity at hr 0,[2]; 20 wt %,98.6%
same,Purity at Day 3,[2]; 30 wt %,98.5%
same,Purity at Day 7,[2]; 30 wt %,98.3%
same,Purity at Day 14,[2]; 30 wt %,98.0%
same,Purity at Day 21,[2]; 30 wt %,98.1%
same,Purity at Day 28,[2]; 30 wt %,97.5%
same,Purity at hr 0,[2]; 30 wt %,98.5%
same,Purity at Day 3,[2]; 50 wt %,98.5%
same,Purity at Day 7,[2]; 50 wt %,98.4%
same,Purity at Day 14,[2]; 50 wt %,98.1%
same,Purity at Day 21,[2]; 50 wt %,97.9%
same,Purity at Day 28,[2]; 50 wt %,97.6%
same,Purity at hr 0,[2]; 50 wt %,98.6%
same,Stability when the concentration is 0.1% or lower,[2],not stable
